From the NIST ThermoML archive (doi:10.1016/j.jct.2011.12.030)

Settings: Liquid, Vibrating tube method

COCC[N+]1(C)CCCC1.O=S(=O)([N-]S(=O)(=O)C(F)(F)F)C(F)(F)F
mass density [kg/m3]
Settings	100 kPa	1000 kPa	10000 kPa	20000 kPa	40000 kPa	60000 kPa	80000 kPa	100000 kPa	120000 kPa
278.15 K	1474.2	1474.9	1480.8	1487	1498.6	1509.5	1519.8	1529.3	1538.3
298.15 K	1453.5	1454.1	1460.2	1466.9	1479.2	1490.6	1501.4	1511.4	1520.9
313.15 K	1439.1	1440.1	1446.5	1453.5	1466.4	1478.4	1489.4	1499.8	1509.6
333.15 K	1420.8	1421.6	1428.5	1435.9	1449.5	1462.2	1473.7	1484.6	1494.8
348.15 K	1407.3	1408	1415.4	1423.2	1437.5	1450.5	1462.5	1473.6	1484.2
373.15 K	1385.3	1385.7	1393.4	1401.8	1417.2	1430.9	1443.5	1455.2	1466.3
398.15 K	1363.2	1363.3	1372	1381	1397.4	1412	1425.4	1437.9	1449.6

CCOS(=O)(=O)[O-].CCn1cc[n+](C)c1 [1-ethyl-3-methylimidazolium ethyl sulfate]
mass density [kg/m3]
Settings	100 kPa	1000 kPa	10000 kPa	20000 kPa	40000 kPa	60000 kPa	80000 kPa	100000 kPa	120000 kPa
278.15 K	1251.9	1252.2	1255.7	1259.5	1266.8	1273.7	1280.2	1286.5	1292.2
298.15 K	1237	1237.3	1241	1245	1252.6	1259.7	1266.5	1273.1	1279.3
313.15 K	1226.6	1227	1230.8	1235	1242.8	1250.3	1257.3	1264.1	1270.5
333.15 K	1213	1213.4	1217.4	1221.7	1230	1237.8	1245.2	1252.3	1259.1
348.15 K	1203.1	1203.6	1207.7	1212.3	1220.9	1228.9	1236.5	1243.8	1250.8
373.15 K	1187.3	1187.3	1191.8	1196.6	1205.8	1214.2	1222.2	1229.7	1237
398.15 K	1171.4	1171	1175.9	1181	1190.7	1199.7	1208.1	1216	1223.4
